Results as given in patent US20210038753A1, “BIOLOGICAL STERILIZATION INDICATOR WITH STERILANT RESISTANCE MODULATOR” (3M INNOVATIVE PROPERTIES COMPANY, priority 2014, published 2021).

What was measured:
[1] = tested on: Geobacillus stearothermophilus spores; assay: Resistance of self-contained biological indicators to hydrogen peroxide sterilization, growth readout by pH colour change (GRO+); type: cell-based; details: Table 5, modulator 0.8 weight percent in spore coating solution, H2O2 exposure 7 min.
Description: (§1) PET film (.09 mm thick) was coated with colloidal silica as described in International Publication No. WO2014/189716, which is incorporated herein by reference in its entirety. […] Separate aqueous spore coating solutions were prepared as described in Example 1 with the amino acids shown in table 4 present in the coating solutions. Two microliter aliquots (containing at least 10^6 spores) of the respective spore coating solutions were deposited onto the silica-coated PET film, forming a series of spaced-apart spots on the film. The spore coated films were dried in a 60° C. incubator for 12 minutes. Circular discs (hereinafter, “coated carriers”) of the PET film, each disc including one of the dried spots, were punched out and were used to assemble self-contained biological indicators (BI) similar to that shown in FIG. 1 of International Publication No. WO2014/189716. The coated carriers described above were placed into the “spore carrier 135” shown in FIG. 1 of International Publication No. WO2014/189716. Each self-contained BI comprised a polycarbonate outer container, a breaker, a cap, and a cap filter. Disposed inside the outer container were a coated carrier along with an ampoule media containing the nutrient medium from 3M ATTEST 1292 Rapid Readout Biological Indicators plus 5g/L methionine (as described in Example 1).
(§2) The self-contained biological indicators with different concentrations of additives (Table 4) were exposed to hydrogen peroxide sterilization in STERRAD NX sterilizer. The sterilization processes were run by manually injecting 1.0 ml of 59% hydrogen peroxide per load, unless specified otherwise. The exposure time was varied to determine the resistance profile of self-contained BIs with different additive formulations. The BIs were activated by pressing down the cap to break the media ampoule. The activated BIs were placed in a bench-top fluorimeter (3M Company, St. Paul, Minn.) to detect fluorescence.
(§3) A self-contained BI that is not completely inactivated (i.e., not all of the spores are killed by the sterilization process) will resume cellular functions upon activation of the BI. The production of glucosidase enzyme by surviving spores is an indication that at least one of the spores have not been inactivated (killed) by the sterilization process. The glucosidase enzyme cleaves the 4-methylumbelliferyl-glucoside (MUG) releasing the fluorescent methyl umbelliferone, which is detected using a bench-top fluorimeter. Growth and proliferation of spores in the self-contained biological indicator can also be detected by a pH change, which may be detected by a color change of the pH indicator in the growth medium.
(§4) Self-contained biological indicators were prepared (with various additives listed in table 4) as described above in this Example. For each additive tested, a lower range and a higher range was used as a preliminary screen to identify additives modulated the resistance of the spores to the sterilant. Five self-contained BIs representing each condition were exposed to hydrogen peroxide sterilization in STERRAD NX sterilizer. The sterilization processes used a constant injection volume (1.0 ml of 59% hydrogen peroxide) and various times (e.g., 20 seconds to 7 minutes) of exposure to the hydrogen peroxide. The self-contained BIs were activated after exposure to the sterilization process and were monitored for fluorescence using a bench-top fluorimeter) and pH based color change (visually). […]
(§5) Self-contained biological indicators (with various additives listed in table 5) were prepared as described in Example 2. The self-contained biological indicators were exposed to hydrogen peroxide in a STERRAD NX sterilizer as described in Example 2. The self-contained BIs were activated after exposure to the sterilization process and were monitored for fluorescence using a bench-top fluorimeter and pH based color change (visually).

[2] = tested on: Geobacillus stearothermophilus spores; assay: Resistance of self-contained biological indicators to hydrogen peroxide sterilization, glucosidase enzyme activity fluorescence readout (ENZ+); type: cell-based
Description: as §1, §2, §3, §4, §5

N=C(N)NCCC[C@H](N)C(=O)O [L-arginine]
0%: percentage of self-contained biological indicators positive for growth (GRO+) [1] | percentage of self-contained biological indicators positive for glucosidase enzyme activity (ENZ+) ([2]; Table 4, modulator 0.01 weight percent in spore coating solution, H2O2 exposure 90 sec.) | percentage of self-contained biological indicators positive for glucosidase enzyme activity (ENZ+) ([2]; Table 4, modulator 0.01 weight percent in spore coating solution, H2O2 exposure 3 min.) | percentage of self-contained biological indicators positive for glucosidase enzyme activity (ENZ+) ([2]; Table 4, modulator 0.01 weight percent in spore coating solution, H2O2 exposure 7 min.) | percentage of self-contained biological indicators positive for glucosidase enzyme activity (ENZ+) ([2]; Table 4, modulator 0.1 weight percent in spore coating solution, H2O2 exposure 60 sec.) | percentage of self-contained biological indicators positive for glucosidase enzyme activity (ENZ+) ([2]; Table 4, modulator 0.1 weight percent in spore coating solution, H2O2 exposure 90 sec.) | percentage of self-contained biological indicators positive for glucosidase enzyme activity (ENZ+) ([2]; Table 4, modulator 0.1 weight percent in spore coating solution, H2O2 exposure 3 min.) | percentage of self-contained biological indicators positive for glucosidase enzyme activity (ENZ+) ([2]; Table 4, modulator 0.1 weight percent in spore coating solution, H2O2 exposure 7 min.) | percentage of self-contained biological indicators positive for glucosidase enzyme activity (ENZ+) ([2]; Table 5, modulator 0.05 weight percent in spore coating solution, H2O2 exposure 90 sec.) | percentage of self-contained biological indicators positive for glucosidase enzyme activity (ENZ+) ([2]; Table 5, modulator 0.05 weight percent in spore coating solution, H2O2 exposure 3 min.) | percentage of self-contained biological indicators positive for glucosidase enzyme activity (ENZ+) ([2]; Table 5, modulator 0.05 weight percent in spore coating solution, H2O2 exposure 7 min.) | percentage of self-contained biological indicators positive for glucosidase enzyme activity (ENZ+) ([2]; Table 5, modulator 0.1 weight percent in spore coating solution, H2O2 exposure 90 sec.) | percentage of self-contained biological indicators positive for glucosidase enzyme activity (ENZ+) ([2]; Table 5, modulator 0.1 weight percent in spore coating solution, H2O2 exposure 3 min.) | percentage of self-contained biological indicators positive for glucosidase enzyme activity (ENZ+) ([2]; Table 5, modulator 0.1 weight percent in spore coating solution, H2O2 exposure 7 min.) | percentage of self-contained biological indicators positive for glucosidase enzyme activity (ENZ+) ([2]; Table 5, modulator 0.2 weight percent in spore coating solution, H2O2 exposure 90 sec.) | percentage of self-contained biological indicators positive for glucosidase enzyme activity (ENZ+) ([2]; Table 5, modulator 0.2 weight percent in spore coating solution, H2O2 exposure 3 min.) | percentage of self-contained biological indicators positive for glucosidase enzyme activity (ENZ+) ([2]; Table 5, modulator 0.2 weight percent in spore coating solution, H2O2 exposure 7 min.) | percentage of self-contained biological indicators positive for glucosidase enzyme activity (ENZ+) ([2]; Table 5, modulator 0.4 weight percent in spore coating solution, H2O2 exposure 60 sec.) | percentage of self-contained biological indicators positive for glucosidase enzyme activity (ENZ+) ([2]; Table 5, modulator 0.4 weight percent in spore coating solution, H2O2 exposure 90 sec.) | percentage of self-contained biological indicators positive for glucosidase enzyme activity (ENZ+) ([2]; Table 5, modulator 0.4 weight percent in spore coating solution, H2O2 exposure 3 min.) | percentage of self-contained biological indicators positive for glucosidase enzyme activity (ENZ+) ([2]; Table 5, modulator 0.4 weight percent in spore coating solution, H2O2 exposure 7 min.) | percentage of self-contained biological indicators positive for glucosidase enzyme activity (ENZ+) ([2]; Table 5, modulator 0.8 weight percent in spore coating solution, H2O2 exposure 60 sec.) | percentage of self-contained biological indicators positive for glucosidase enzyme activity (ENZ+) ([2]; Table 5, modulator 0.8 weight percent in spore coating solution, H2O2 exposure 90 sec.) | percentage of self-contained biological indicators positive for glucosidase enzyme activity (ENZ+) ([2]; Table 5, modulator 0.8 weight percent in spore coating solution, H2O2 exposure 3 min.) | percentage of self-contained biological indicators positive for glucosidase enzyme activity (ENZ+) ([2]; Table 5, modulator 0.8 weight percent in spore coating solution, H2O2 exposure 7 min.)
80%: percentage of self-contained biological indicators positive for glucosidase enzyme activity (ENZ+) ([2]; Table 4, modulator 0.01 weight percent in spore coating solution, H2O2 exposure 30 sec.) | percentage of self-contained biological indicators positive for glucosidase enzyme activity (ENZ+) ([2]; Table 4, modulator 0.1 weight percent in spore coating solution, H2O2 exposure 30 sec.)
60%: percentage of self-contained biological indicators positive for glucosidase enzyme activity (ENZ+) ([2]; Table 4, modulator 0.01 weight percent in spore coating solution, H2O2 exposure 60 sec.)
33%: percentage of self-contained biological indicators positive for glucosidase enzyme activity (ENZ+) ([2]; Table 5, modulator 0.1 weight percent in spore coating solution, H2O2 exposure 60 sec.) | percentage of self-contained biological indicators positive for glucosidase enzyme activity (ENZ+) ([2]; Table 5, modulator 0.2 weight percent in spore coating solution, H2O2 exposure 60 sec.)
67%: percentage of self-contained biological indicators positive for glucosidase enzyme activity (ENZ+) ([2]; Table 5, modulator 0.05 weight percent in spore coating solution, H2O2 exposure 60 sec.) | percentage of self-contained biological indicators positive for glucosidase enzyme activity (ENZ+) ([2]; Table 5, modulator 0.8 weight percent in spore coating solution, H2O2 exposure 30 sec.)
100%: percentage of self-contained biological indicators positive for glucosidase enzyme activity (ENZ+) ([2]; Table 5, modulator 0.05 weight percent in spore coating solution, H2O2 exposure 20 sec.) | percentage of self-contained biological indicators positive for glucosidase enzyme activity (ENZ+) ([2]; Table 5, modulator 0.05 weight percent in spore coating solution, H2O2 exposure 30 sec.) | percentage of self-contained biological indicators positive for glucosidase enzyme activity (ENZ+) ([2]; Table 5, modulator 0.1 weight percent in spore coating solution, H2O2 exposure 20 sec.) | percentage of self-contained biological indicators positive for glucosidase enzyme activity (ENZ+) ([2]; Table 5, modulator 0.1 weight percent in spore coating solution, H2O2 exposure 30 sec.) | percentage of self-contained biological indicators positive for glucosidase enzyme activity (ENZ+) ([2]; Table 5, modulator 0.2 weight percent in spore coating solution, H2O2 exposure 20 sec.) | percentage of self-contained biological indicators positive for glucosidase enzyme activity (ENZ+) ([2]; Table 5, modulator 0.2 weight percent in spore coating solution, H2O2 exposure 30 sec.) | percentage of self-contained biological indicators positive for glucosidase enzyme activity (ENZ+) ([2]; Table 5, modulator 0.4 weight percent in spore coating solution, H2O2 exposure 20 sec.) | percentage of self-contained biological indicators positive for glucosidase enzyme activity (ENZ+) ([2]; Table 5, modulator 0.4 weight percent in spore coating solution, H2O2 exposure 30 sec.) | percentage of self-contained biological indicators positive for glucosidase enzyme activity (ENZ+) ([2]; Table 5, modulator 0.8 weight percent in spore coating solution, H2O2 exposure 20 sec.)
